In paper PMC6158578, “Optimization and Lead Selection of Benzothiazole Amide Analogs Toward a Novel Antimycobacterial Agent” (Frontiers in Microbiology, 2018):
In brackets after ≈: the same amount, converted by molar mass. Like-named read-outs stand apart in the source and are kept apart here.

What was measured:
[1] = Solubility in corn oil; conditions: oil or lipid
[2] = tested on: M. avium 101; experiment: MIC, Middlebrook medium (7H9 + OADC, 7 days); type: cell-based; conditions: Mycobacterium avium, 168 h; M. avium 101; read-out: MIC
[3] = Mouse oral PK and tolerability; type: in vivo, female CD-1 mice; conditions: oral 100 mg/kg
[4] = tested on: E. faecalis ATCC 29212; experiment: MIC, spectrum of activity; type: cell-based; conditions: Enterococcus faecalis, ATCC29212; E. faecalis ATCC 29212; read-out: MIC
[5] = tested on: Other NTM (n = 12); experiment: MIC against rapid-growing NTM clinical isolates; type: cell-based; conditions: Other NTM (n = 12)
[6] = tested on: M. tuberculosis H37Rv mc^2 6206; experiment: microbe, parasite or virus in culture; type: cell-based; conditions: Mycobacterium tuberculosis, 168 h
[7] = tested on: Mtb; experiment: microbe, parasite or virus in culture; type: cell-based, M. tuberculosis; conditions: Mycobacterium tuberculosis
[8] = tested on: S. pneumoniae ATCC 49619; experiment: MIC, spectrum of activity; type: cell-based; conditions: Streptococcus pneumoniae, ATCC49619; S. pneumoniae ATCC 49619; read-out: MIC
[9] = tested on: E. coli ATCC 25922 + PMBN (permeabilized); experiment: MIC, spectrum of activity; type: cell-based; conditions: Escherichia coli, ATCC25922
[10] = tested on: Mabs 21
[11] = tested on: S. pyogenes ATCC 19615; experiment: MIC, spectrum of activity; type: cell-based; conditions: Streptococcus pyogenes, ATCC19615; S. pyogenes ATCC 19615; read-out: MIC
[12] = tested on: M. abscessus ATCC 19977; experiment: MIC, broth microdilution with resazurin (MHB, 3 days); type: cell-based; conditions: Mycobacteroides abscessus, ATCC19977; M. abscessus ATCC 19977; read-out: MIC
[13] = tested on: Mtb H37Rv; type: cell-based, M. tuberculosis
[14] = tested on: P. aeruginosa ATCC 35151; experiment: MIC, spectrum of activity; type: cell-based; conditions: Pseudomonas aeruginosa, ATCC35151; P. aeruginosa ATCC 35151; read-out: MIC
[15] = tested on: equine erythrocytes; experiment: Hemolysis assay; conditions: up to 128 μg/mL, 10 min, room temperature
[16] = tested on: M. abscessus 1; experiment: MIC in MHB versus 7H9+OADC; type: cell-based
[17] = tested on: E. coli tolC CGSC 5633 (efflux mutant strain); experiment: microbe, parasite or virus in culture; type: cell-based; conditions: Escherichia coli
[18] = tested on: S. aureus ATCC 29213; experiment: MIC, spectrum of activity; type: cell-based; conditions: Staphylococcus aureus, ATCC29213; S. aureus ATCC 29213; read-out: MIC
[19] = tested on: M. chimaera 1502055; experiment: MIC, Middlebrook medium (7H9 + OADC, 7 days); type: cell-based; conditions: 168 h; M. chimaera 1502055; read-out: MIC
[20] = tested on: M. intracellulare 1956; experiment: MIC, Middlebrook medium (7H9 + OADC, 7 days); type: cell-based; conditions: Mycobacterium intracellulare, 168 h; M. intracellulare 1956; read-out: MIC
[21] = 50% complement-inactivated human serum
[22] = in vitro; type: in vitro ADME; conditions: human, microsomes
Experimental: (§1) ADMET assays were performed through NIAID Preclinical Services and Eurofins. Potential for cytotoxicity was monitored in HepG2 cells after 72 h growth in the presence of test compounds, either prepared as 10-point 3-fold serial dilutions or at a fixed 10 μM concentration. Cell viability was measured using the CellTiter-Glo® Luminescent Cell Viability Assay (Promega) or via fluorescent image analysis. Cytotoxicity was expressed as IC50 or as percent reduction of viable cells relative to a reference compound. Metabolic stability of compounds was evaluated via incubation with human liver microsomes at 37°C and quantitative analysis of parent compound by LC-MS/MS in samples removed at 0, 5, 15, 30, and 45 min (Obach, [1999]). For cytochrome P450 (CYP) inhibition assays, compounds were prepared as a 7-point dilution series and incubated with human liver microsomes in buffer containing 2 mM NADPH and probe substrate. […] Thermodynamic solubility of compounds in aqueous media was determined by incubation in 50 mM potassium phosphate buffer (pH 7.4) for 24 h, followed by HPLC-UV detection of compound in the filtrate (Analiza, Cleveland, OH, United States).

[23] = tested on: Anaerobes (n > 20 strains); experiment: organism not typed; type: cell-based
[24] = physchem; type: physicochemical; conditions: pH 7.4, aqueous buffer, thermodynamic from solid
Experimental: as §1

[25] = tested on: M. fortuitum (n = 11) clinical isolates; experiment: MIC against rapid-growing NTM clinical isolates; type: cell-based; conditions: M. fortuitum (n = 11)
[26] = HepG2 cytotoxicity, 72 h; type: cell-based; conditions: human, HepG2 cells, HepG2, 72 h, read-out: HepG2 cytotox., IC50
Experimental: as §1

[27] = tested on: M. abscessus 21; experiment: MIC in MHB versus 7H9+OADC; type: cell-based
[28] = tested on: M. fortuitum 41; experiment: MIC, broth microdilution with resazurin (MHB, 3 days); type: cell-based; conditions: Mycolicibacterium fortuitum; M. fortuitum 41; read-out: MIC
[29] = tested on: M. abscessus (n = 20) clinical isolates; experiment: MIC against rapid-growing NTM clinical isolates; type: cell-based; conditions: M. abscessus (n = 20)
[30] = tested on: M. chelonae 93; experiment: MIC, broth microdilution with resazurin (MHB, 3 days); type: cell-based; conditions: Mycobacteroides chelonae; M. chelonae 93; read-out: MIC

For `CC12CC3CC(C)(C1)CC(C(=O)Nc1nc4ccc(OC(F)(F)F)cc4s1)(C3)C2` [CRS400226], the solubility [1] was at most 250 mg/mL, the MIC [2] was 2 µg/mL and the concentration at 1 h ([3]; mouse, plasma, female CD-1 mice, 1 h, read-out: plasma level) was 2300 ng/mL. For the same molecule, the concentration at 8 h ([3]; mouse, plasma, female CD-1 mice, 8 h, read-out: plasma level) was 2000 ng/mL, the “tolerability of oral dosing” value ([3]; mice) was “highly tolerated” and the MIC [4] was over 64 µg/mL. It also gave an MIC range [5] of 0.12 to 1 µg/mL, an MIC90 ([5]; read-out: MIC90) of 0.5 µg/mL (≈ 1.18 µM) and an MIC [6] of 0.5 µg/mL (≈ 1.18 µM). It also gave an MBC [7] of 10.6 µg/mL (≈ 25 µM), an MIC [8] of 64 µg/mL (≈ 151 µM) and an MIC [9] of over 64 µg/mL. For the same molecule, the lung histology ([10]; after 4 weeks of treatment) was “only very mild areas of airway-centric inflammation”, the “reduction of lung CFU compared to the vehicle control” value ([10]; intratracheal 25 mg/kg once daily, 5 days per week, 4 weeks, 5% corn oil/saline emulsion) was 0.64 Log10 CFU and the tolerability ([10]; up to 4 weeks of treatment, intratracheal 25 mg/kg) was “well tolerated”. For the same molecule, the MIC [11] was over 64 µg/mL, the MIC [12] was 0.25 µg/mL (≈ 0.589 µM) and the “reduction in Mtb in time-kill assay” value [13] was 3 Log10 CFU. For the same molecule, the “time-kill kinetics, result in words” value [13] was “bactericidal activity”, the MIC [14] was over 64 µg/mL and the Hemolysis [15] was 128 µg/mL. It also gave an MIC ([16]; M. abscessus 1, 7H9 + OADC (5 mg/mL albumin)) of 8 µg/mL, an MIC ([16]; M. abscessus 1, MHB) of 0.25 µg/mL (≈ 0.589 µM) and an MIC [17] of over 64 µg/mL. It also gave an MIC [18] of over 64 µg/mL, an MIC [19] of 1 µg/mL and an MIC [20] of 1 µg/mL. For the same molecule, the “Protein (serum) binding” value [21] was over 95%, the microsomal CLint [22] was 124 µL/min/mg and the MIC [23] was over 16 µg/mL. The solubility at 24 h [24] was under 3 µM, the MIC range [25] was 0.12 to 0.5 µg/mL and the MIC90 ([25]; Mycolicibacterium fortuitum, read-out: MIC90) was 0.5 µg/mL (≈ 1.18 µM). The IC50 at 72 h [26] was 69 µM, the IC50 at 72 h ([26]; value in brackets) was 29 µg/mL and the MIC ([27]; M. abscessus 21, 7H9 + OADC (5 mg/mL albumin)) was 8 µg/mL. It also gave an MIC ([27]; M. abscessus 21, MHB) of 0.25 µg/mL (≈ 0.589 µM), an MIC [28] of 0.12 µg/mL (≈ 0.283 µM) and an MIC range [29] of 0.25 to 2 µg/mL. It also gave an MIC90 ([29]; Mycobacteroides abscessus, read-out: MIC90) of 0.5 µg/mL (≈ 1.18 µM) and an MIC [30] of 0.5 µg/mL (≈ 1.18 µM).
